From US12637433B2, “Histone deacetylase inhibitors” (THE UNIVERSITY OF QUEENSLAND, priority 2020, dated 2026)
Where two headings read alike, the source gives them in different places.

Assays:
Format in all cases: biochemical
[1] = target: T1, human HDAC7 enzyme (Homo sapiens, UniProt Q8WUI4); assay: Human HDAC7 enzyme assay (Class IIa HDACs); settings: Table 8; recombinant human HDAC7
T1 construct: purchased Reaction Biology Corp

[2] = target: T2, human HDAC1 enzyme (Homo sapiens, UniProt Q13547); assay: Human HDAC1 enzyme assay (Class I HDACs)
T2 construct: purchased BPS Bioscience
T2 sequence (Q13547 whole entry): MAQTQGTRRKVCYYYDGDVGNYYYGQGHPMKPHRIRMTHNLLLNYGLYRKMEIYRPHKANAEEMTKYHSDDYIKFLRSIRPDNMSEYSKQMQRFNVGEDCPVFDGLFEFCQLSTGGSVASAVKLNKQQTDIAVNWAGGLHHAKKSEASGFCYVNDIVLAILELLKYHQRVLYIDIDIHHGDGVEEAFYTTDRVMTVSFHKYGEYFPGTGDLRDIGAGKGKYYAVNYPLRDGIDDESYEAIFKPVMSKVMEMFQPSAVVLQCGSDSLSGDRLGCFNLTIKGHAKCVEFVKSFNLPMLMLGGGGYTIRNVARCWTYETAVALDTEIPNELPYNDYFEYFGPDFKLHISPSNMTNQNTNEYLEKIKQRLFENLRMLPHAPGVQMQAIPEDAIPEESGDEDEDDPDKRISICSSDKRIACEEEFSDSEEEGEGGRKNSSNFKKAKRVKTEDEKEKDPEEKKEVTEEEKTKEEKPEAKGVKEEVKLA
Experimental: The inhibitory effect of compounds on HDAC1 activity was assessed in vitro using an optimised assay performed in black/flat black wall 384-well plate (Corning Inc.). All reagents and compounds were prepared in HDAC1 assay buffer (25 mM Tris-HCl, 137 mM NaCl, 2.7 mM KCl, 1 mM MgCl2·H2O and 0.1 mg/mL bovine serum albumin; pH 8). Various concentrations of inhibitor were pre-incubated with 50 ng/mL human HDAC1 enzyme (BPS Bioscience) for 30 min at room temperature on a plate shaker. Substrate (Leu(Ac)-Gly-Lys(Ac)-AMC, 12 μM) were then added and incubated for 90 min at 37° C. in the dark. The enzymatic reaction was then incubated with the developer solution (1 mg/mL trypsin and 25 μM SAHA) for 15-20 min at room temperature. Fluorescence intensity was measured using PHERAstar plate reader (BMG Labtech) at 350 nm excitation and 460 nm emission.
(§1) Data analysis: Triplicate measurements were made for each data point and error bars represent mean±SEM of three independent experiments. All data were plotted and analysed using GraphPad Prism Version 6.0d for Mac OS X (GraphPad Software). Dose Response Curves plotted using 4 parameters logistic model.

[3] = target: HDAC5 (Homo sapiens, UniProt Q9UQL6); assay: Isoform selectivity, HDAC5 inhibition; settings: Table 9; recombinant human HDAC; read-out: IC50, Class IIa HDAC5
Chain of HDAC5 (Q9UQL6 whole entry, canonical isoform): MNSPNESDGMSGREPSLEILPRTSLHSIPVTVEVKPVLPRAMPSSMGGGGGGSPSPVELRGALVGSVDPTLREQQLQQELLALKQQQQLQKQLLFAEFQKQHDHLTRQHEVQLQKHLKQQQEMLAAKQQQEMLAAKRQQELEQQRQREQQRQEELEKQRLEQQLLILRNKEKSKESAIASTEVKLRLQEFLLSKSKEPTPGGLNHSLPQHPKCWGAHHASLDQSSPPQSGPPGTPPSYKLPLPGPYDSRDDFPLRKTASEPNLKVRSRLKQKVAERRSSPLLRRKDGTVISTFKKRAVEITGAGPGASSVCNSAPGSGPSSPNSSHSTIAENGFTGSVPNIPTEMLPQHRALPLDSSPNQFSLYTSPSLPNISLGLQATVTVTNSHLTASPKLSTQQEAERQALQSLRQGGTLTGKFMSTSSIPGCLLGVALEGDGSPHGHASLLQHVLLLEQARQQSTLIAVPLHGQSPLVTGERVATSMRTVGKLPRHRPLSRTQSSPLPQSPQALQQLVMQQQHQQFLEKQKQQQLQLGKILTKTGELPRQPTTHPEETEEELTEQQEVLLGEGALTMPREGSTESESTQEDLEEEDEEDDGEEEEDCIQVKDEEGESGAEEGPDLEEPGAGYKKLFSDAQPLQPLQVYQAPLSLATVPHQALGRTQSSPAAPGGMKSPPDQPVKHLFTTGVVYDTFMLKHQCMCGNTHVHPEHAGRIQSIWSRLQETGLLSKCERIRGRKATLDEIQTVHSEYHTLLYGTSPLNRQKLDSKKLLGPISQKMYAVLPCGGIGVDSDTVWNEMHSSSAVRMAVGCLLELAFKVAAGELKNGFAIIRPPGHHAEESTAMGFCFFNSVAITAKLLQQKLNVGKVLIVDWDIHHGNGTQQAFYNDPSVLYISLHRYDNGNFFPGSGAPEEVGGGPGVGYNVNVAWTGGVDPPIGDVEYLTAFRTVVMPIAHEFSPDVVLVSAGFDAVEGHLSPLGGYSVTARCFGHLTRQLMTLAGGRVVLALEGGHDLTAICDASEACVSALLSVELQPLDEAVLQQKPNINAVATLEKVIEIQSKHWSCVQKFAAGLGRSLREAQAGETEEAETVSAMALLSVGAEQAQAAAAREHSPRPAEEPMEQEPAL

[4] = target: HDAC9 (Homo sapiens, UniProt Q9UKV0); assay: Isoform selectivity, HDAC9 inhibition; settings: Table 9; recombinant human HDAC; read-out: IC50, Class IIa HDAC9
Chain of HDAC9 (Q9UKV0 whole entry, canonical isoform): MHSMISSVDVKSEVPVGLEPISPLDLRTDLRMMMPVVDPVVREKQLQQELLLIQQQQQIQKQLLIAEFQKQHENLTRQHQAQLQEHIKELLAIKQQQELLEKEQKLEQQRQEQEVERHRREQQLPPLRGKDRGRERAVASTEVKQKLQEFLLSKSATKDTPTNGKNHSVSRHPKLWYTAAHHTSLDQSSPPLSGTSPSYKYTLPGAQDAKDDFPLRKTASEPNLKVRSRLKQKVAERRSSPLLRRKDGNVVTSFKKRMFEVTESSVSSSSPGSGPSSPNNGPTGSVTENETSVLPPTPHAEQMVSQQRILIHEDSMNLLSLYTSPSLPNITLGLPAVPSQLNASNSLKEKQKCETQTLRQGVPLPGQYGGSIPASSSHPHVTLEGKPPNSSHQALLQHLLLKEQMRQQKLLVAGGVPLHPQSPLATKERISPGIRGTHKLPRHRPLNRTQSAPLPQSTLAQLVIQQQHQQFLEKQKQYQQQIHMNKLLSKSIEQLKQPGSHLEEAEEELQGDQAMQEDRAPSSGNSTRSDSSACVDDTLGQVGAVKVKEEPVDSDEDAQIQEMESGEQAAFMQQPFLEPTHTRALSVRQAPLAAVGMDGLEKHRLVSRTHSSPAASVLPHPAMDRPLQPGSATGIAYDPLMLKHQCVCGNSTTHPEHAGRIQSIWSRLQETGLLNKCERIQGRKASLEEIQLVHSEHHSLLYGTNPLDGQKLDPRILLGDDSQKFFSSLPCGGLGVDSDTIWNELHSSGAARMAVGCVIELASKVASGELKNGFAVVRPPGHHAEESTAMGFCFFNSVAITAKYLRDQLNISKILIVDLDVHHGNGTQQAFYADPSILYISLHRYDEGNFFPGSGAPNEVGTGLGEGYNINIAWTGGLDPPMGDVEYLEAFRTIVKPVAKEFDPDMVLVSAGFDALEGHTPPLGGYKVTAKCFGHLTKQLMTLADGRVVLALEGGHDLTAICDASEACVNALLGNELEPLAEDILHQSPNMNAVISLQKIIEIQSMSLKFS

[5] = target: T3, human HDAC6 enzyme (Homo sapiens, UniProt Q9UBN7); assay: Human HDAC6 enzyme assay (Class IIb HDACs); settings: Table 9; recombinant human HDAC
T3 construct: purchased Cayman Chemical
Experimental: The inhibitory effect of compounds on HDAC6 activity was assessed in vitro using an optimised assay performed in black/flat black wall 384-well plate (Corning Inc.). All reagents and compounds were prepared in HDAC assay buffer (25 mM Tris-HCl, 137 mM NaCl, 2.7 mM KCl, 1 mM MgCl2·H2O and 0.1 mg/mL bovine serum albumin; pH 8). Various concentrations of inhibitor were pre-incubated with 100 ng/ml human HDAC6 enzyme (Cayman Chemical) for 15 min at room temperature on a plate shaker. Substrate (Boc-Lys(Ac)-AMC, 25 μM) were then added and incubated for 60 min at 37° C. in the dark. The enzymatic reaction was then incubated with the developer solution (1 mg/mL trypsin and 10 μM SAHA) for 15-20 min at room temperature. Fluorescence intensity was measured using PHERAstar plate reader (BMG Labtech) at 350 nm excitation and 460 nm emission.
as §1

[6] = target: HDAC4 (Homo sapiens, UniProt P56524); assay: Isoform selectivity, HDAC4 inhibition; settings: Table 9; recombinant human HDAC; read-out: IC50, Class IIa HDAC4
Chain of HDAC4 (P56524 whole entry, canonical isoform): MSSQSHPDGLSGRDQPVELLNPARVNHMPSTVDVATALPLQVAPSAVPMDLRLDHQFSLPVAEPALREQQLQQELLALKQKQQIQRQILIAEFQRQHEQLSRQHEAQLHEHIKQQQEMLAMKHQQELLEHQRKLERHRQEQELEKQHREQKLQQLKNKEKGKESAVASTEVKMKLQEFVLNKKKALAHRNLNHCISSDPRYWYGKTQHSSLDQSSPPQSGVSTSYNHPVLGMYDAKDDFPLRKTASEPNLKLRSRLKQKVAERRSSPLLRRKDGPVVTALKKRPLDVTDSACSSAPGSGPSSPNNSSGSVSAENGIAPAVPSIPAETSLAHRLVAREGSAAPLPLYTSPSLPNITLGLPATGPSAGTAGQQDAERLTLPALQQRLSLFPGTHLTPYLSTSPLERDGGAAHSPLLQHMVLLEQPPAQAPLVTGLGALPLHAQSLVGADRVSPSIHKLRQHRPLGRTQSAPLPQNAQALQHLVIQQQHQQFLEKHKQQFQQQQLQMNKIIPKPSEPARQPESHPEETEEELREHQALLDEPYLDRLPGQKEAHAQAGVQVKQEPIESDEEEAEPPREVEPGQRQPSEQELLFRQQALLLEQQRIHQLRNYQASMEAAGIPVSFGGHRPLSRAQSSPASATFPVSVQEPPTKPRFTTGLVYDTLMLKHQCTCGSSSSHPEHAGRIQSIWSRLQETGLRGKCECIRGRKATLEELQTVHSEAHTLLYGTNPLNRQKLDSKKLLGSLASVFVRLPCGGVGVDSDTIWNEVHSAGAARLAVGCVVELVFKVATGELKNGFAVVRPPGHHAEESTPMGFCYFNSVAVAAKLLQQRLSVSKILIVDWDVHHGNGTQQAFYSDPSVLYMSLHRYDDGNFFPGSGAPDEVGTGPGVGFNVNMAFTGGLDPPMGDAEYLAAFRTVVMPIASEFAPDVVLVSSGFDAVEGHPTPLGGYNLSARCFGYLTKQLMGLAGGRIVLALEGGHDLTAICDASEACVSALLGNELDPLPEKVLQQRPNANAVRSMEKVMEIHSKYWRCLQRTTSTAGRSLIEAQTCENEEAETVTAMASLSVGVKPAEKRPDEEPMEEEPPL

[7] = Table 8, recombinant human HDAC1, read-out: IC50 (nM) (HDAC1)
[8] = Table 9, recombinant human HDAC, read-out: IC50, Class I HDAC1

T1 sequence (Q8WUI4 whole entry): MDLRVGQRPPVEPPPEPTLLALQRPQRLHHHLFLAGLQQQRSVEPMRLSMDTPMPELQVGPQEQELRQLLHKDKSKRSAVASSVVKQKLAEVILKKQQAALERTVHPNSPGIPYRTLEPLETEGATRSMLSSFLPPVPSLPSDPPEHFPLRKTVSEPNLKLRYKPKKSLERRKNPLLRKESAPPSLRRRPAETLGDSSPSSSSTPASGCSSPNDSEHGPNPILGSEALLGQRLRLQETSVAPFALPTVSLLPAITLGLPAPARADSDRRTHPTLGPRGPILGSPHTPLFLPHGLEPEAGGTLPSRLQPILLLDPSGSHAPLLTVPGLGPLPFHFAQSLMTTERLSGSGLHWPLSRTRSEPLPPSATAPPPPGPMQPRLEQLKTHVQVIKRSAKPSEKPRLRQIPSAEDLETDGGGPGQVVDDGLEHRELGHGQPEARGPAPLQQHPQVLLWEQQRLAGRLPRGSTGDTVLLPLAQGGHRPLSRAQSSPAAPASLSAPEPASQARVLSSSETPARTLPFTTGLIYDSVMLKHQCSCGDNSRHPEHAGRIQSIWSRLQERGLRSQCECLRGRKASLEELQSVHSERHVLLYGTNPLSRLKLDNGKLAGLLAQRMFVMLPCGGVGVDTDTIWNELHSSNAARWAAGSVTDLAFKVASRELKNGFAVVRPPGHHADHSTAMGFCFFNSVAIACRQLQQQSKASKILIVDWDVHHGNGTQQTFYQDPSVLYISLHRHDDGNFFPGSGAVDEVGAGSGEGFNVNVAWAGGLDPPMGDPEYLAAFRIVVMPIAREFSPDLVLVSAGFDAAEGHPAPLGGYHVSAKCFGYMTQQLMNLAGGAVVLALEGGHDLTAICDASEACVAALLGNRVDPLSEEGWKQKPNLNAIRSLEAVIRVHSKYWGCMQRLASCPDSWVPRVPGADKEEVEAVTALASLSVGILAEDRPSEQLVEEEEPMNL

IC50 [1] | IC50 [2, 7] | SMILES | IC50 [3] | IC50 [4] | IC50 [5] | IC50 [6] | IC50 [2, 8]
81 ± 14 nM | > 10000 nM | O=C(NCc1ccc(C(=O)NO)c(-c2ccccc2)c1)c1ccc[nH]1 [Example 23] | – | – | – | – | –
43 ± 9 nM | > 10000 nM | NC(=O)c1ccc(Nc2ccc(C(=O)NO)c(-c3ccccc3)c2)cc1 [Example 79] | – | – | – | – | –
59 ± 10 nM | > 10000 nM | O=C(NCc1ccc(C(=O)NO)c(-c2ccccc2)c1)c1cc2ccccc2[nH]1 [Example 24] | – | – | – | – | –
556 ± 317 nM | > 10000 nM | CN(C)c1ccc(C2(C(=O)Nc3ccc(C(=O)NO)c(-c4ccccc4)c3)CCCC2)cc1 [Example 64] | – | – | – | – | –
> 10000 nM | 3840 ± 1630 nM | O=C(NCc1ccc(C(=O)NO)c(Br)c1)Nc1cccc2cccnc12 [Example 1, 2-bromo-N-hydroxy-4-((3-(quinolin-8-yl)ureido)methyl)benzamide, reference compound] | – | – | – | – | –
7.3 ± 1.2 nM | 2200 nM | Cc1nc2ccccc2c(=O)n1Cc1ccc(C(=O)NO)c(-c2ccccc2)c1 [compound 12] | 9 ± 2 nM | 17 ± 3 nM | 1100 nM | 42 ± 7 nM | –
> 10000 nM | 2520 ± 1340 nM | O=C(NCc1ccc(C(=O)NO)c(Oc2ccccc2)c1)Nc1cccc2cccnc12 [Example 3, 2-phenoxy-N-hydroxy-4-((3-(quinolin-8-yl)ureido)methyl)benzamide, reference compound] | – | – | – | – | –
6.4 ± 0.8 nM | 3200 nM | Cc1nc2ccccc2c(=O)n1Cc1ccc(C(=O)NO)c(-c2ccc(F)cc2)c1 [Example 14] | 8 ± 1 nM | 15 ± 3 nM | 1300 ± 480 nM | 22 ± 3 nM | –
214 ± 54 nM | 2360 ± 452 nM | O=C(NCc1ccc(C(=O)NO)c(-c2ccccc2)c1)Nc1cccc2cccnc12 [Example 2] | – | – | – | – | –
12 ± 1.2 nM | 4210 ± 1760 nM | Cc1cc(F)ccc1-c1cc(Cn2c(C)nc3ccccc3c2=O)ccc1C(=O)NO [Example 13] | – | – | – | – | –
1210 ± 700 nM | 4900 ± 1710 nM | O=C(NO)c1ccc(NC(=O)C2(c3ccc(Br)cc3)CCCC2)cc1-c1ccccc1 [Example 65] | – | – | – | – | –
– | > 20000 nM | O=C(NO)c1ccc(CN2C(=O)CCC2=O)cc1-c1ccccc1 [Example 51] | – | – | – | – | –
555 ± 334 nM | > 10000 nM | CC(C)C(C(=O)Nc1ccc(C(=O)NO)c(-c2ccccc2)c1)c1ccccc1 (stereo not drawn) [Example 59] | – | – | – | – | –

SMILES | IC50 [1] | IC50 [2, 7] | IC50 [3] | IC50 [4] | IC50 [5] | IC50 [6] | IC50 [2, 8]
O=C(NO)c1ccc(CN2C(=O)c3ccccc3C2=O)cc1-c1ccccc1 [Example 36] | – | 32000 nM | 12 ± 2 nM | 133 ± 52 nM | 5700 nM | 28 ± 4 nM | 32000 nM
O=C(NO)c1ccc(CN2C(=O)c3ccccc3S2(=O)=O)cc1-c1ccccc1 [Example 56] | – | 4900 nM | 8 ± 1 nM | 93 ± 44 nM | 5500 nM | 48 ± 6 nM | 4900 nM
O=C(NO)c1ccc(CN2C(=O)c3cccc(F)c3C2=O)cc1-c1ccccc1 [Example 55] | – | 27000 nM | 16 ± 2 nM | 183 ± 102 nM | 4400 nM | 13 ± 3 nM | 27000 nM
